Measured values as given in PubChem BioAssay AID248 (DTP/NCI, 2004).
Toxic doses and inconclusive results are not listed. Cut-off read from the data, not from the text of the source: active = T/C of 150% or more; inactive = T/C below 125%.

Test system: L1210 leukemia ip in BDF1 mice, survival T/C
Assay: NCI In Vivo Anticancer Drug Screen. Data for tumor model L1210 Leukemia (intraperitoneal) in B6D2F1 (BDF1) mice
Settings: endpoint: mean survival time, higher = longer survival
Method in brief: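 Ratio derived from survival: compound-dosed mice over vehicle-dosed mice, all bearing a transplantable tumor.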

Measured: T/C

Cc1ccc(Cl)cc1N=Cc1cccc([N+](=O)[O-])c1
inactive: dose: 75.0 mg/kg/injection, schedule: Q04DX003 (ip), vehicle: Klucel (hydroxypropylcellulose) (HPC) 96 % of control | dose: 100.0 mg/kg/injection, schedule: Q01DX001 (ip), vehicle: Klucel (hydroxypropylcellulose) (HPC) 100 % of control | dose: 150.0 mg/kg/injection, schedule: Q04DX003 (ip), vehicle: Klucel (hydroxypropylcellulose) (HPC) 93 % of control | dose: 200.0 mg/kg/injection, schedule: Q01DX001 (ip), vehicle: Klucel (hydroxypropylcellulose) (HPC) 97 % of control | dose: 300.0 mg/kg/injection, schedule: Q04DX003 (ip), vehicle: Klucel (hydroxypropylcellulose) (HPC) 93 % of control | dose: 400.0 mg/kg/injection, schedule: Q01DX001 (ip), vehicle: Klucel (hydroxypropylcellulose) (HPC) 101 % of control

CCSc1ccc2c(cc1=O)C(NC(=S)Nc1ccccc1)CCc1cc(OC)c(OC)c(OC)c1-2 (stereo unspecified)
inactive: dose: 100.0 mg/kg/injection, schedule: Q04DX003 (ip), vehicle: carboxymethylcellulose (CMC) 102 % of control | dose: 200.0 mg/kg/injection, schedule: Q04DX003 (ip), vehicle: carboxymethylcellulose (CMC) 107 % of control

Clc1ccc2nccnc2c1
inactive: dose: 100.0 mg/kg/injection, schedule: Q04DX003 (ip), vehicle: Klucel (hydroxypropylcellulose) (HPC) 97 % of control | dose: 200.0 mg/kg/injection, schedule: Q04DX003 (ip), vehicle: Klucel (hydroxypropylcellulose) (HPC) 107 % of control

O=C(O)CS(=O)(=O)Cc1ccc(Cl)cc1
inactive: dose: 100.0 mg/kg/injection, schedule: Q04DX002 (ip), vehicle: saline with Tween-80 95 % of control | dose: 200.0 mg/kg/injection, schedule: Q04DX002 (ip), vehicle: saline with Tween-80 113 % of control | dose: 400.0 mg/kg/injection, schedule: Q04DX002 (ip), vehicle: saline with Tween-80 95 % of control

OC1C2C3CCC(CC3)C2C(C2OCCO2)C2C3CCC(C3)C12 (stereo unspecified)
inactive: dose: 50.0 mg/kg/injection, schedule: Q01DX009 (ip), vehicle: saline with Tween-80 96 % of control | dose: 100.0 mg/kg/injection, schedule: Q01DX009 (ip), vehicle: saline with Tween-80 96 % of control | dose: 200.0 mg/kg/injection, schedule: Q01DX009 (ip), vehicle: saline with Tween-80 89 % of control
